From patent publication US10100285B2, “Ex vivo proliferation of epithelial cells” (PROPAGENIX INC., priority 2015, dated 2018) come the findings set out here.

Test [1] deals with human foreskin keratinocytes (HFK). As to the kind of experiment: Epidermal-like structure in air-liquid-interface differentiation (H&E). It is filed as cell-based. As to conditions: 1.5 mM CaCl2 in KSFM+A+Y, day 14. The procedure:
Keratinocytes formed an epidermal-like structure over time in air-liquid-interface differentiation, in the presence of high concentration (1.5 mM) of CaCl2 in KSFM plus A 83-01 and Y-27632. Specifically, human foreskin keratinocytes (HFK) previously cultured in KSFM supplemented with 1 μM A83-01 and 5 μM Y-27632 (KSFM+A+Y) at low CaCl2 (90 μM) were plated on a porous membrane support ([…], Corning, 354474) and maintained for 14 days. The cells were covered by culture medium (KSFM+A+Y and 1.5 mM of CaCl2) for the first day and exposed to air for the remaining days. At the end of experiment (i.e., on day 14), the culture was fixed in 4% paraformaldehyde, embedded in paraffin and sectioned for haematoxylin and eosin staining (H&E) to reveal its structure.

The test system is the same in test [2]. As to the kind of experiment: TEER in air-liquid-interface differentiation of keratinocytes. It is filed as cell-based. Conditions: 1.5 mM CaCl2 in KSFM+A+Y, 14 days. The method, then:
Keratinocytes established increasing transmembrane electric resistance (TEER) over time in air-liquid-interface differentiation, in the presence of high concentration (1.5 mM) of CaCl2 in KSFM plus A 83-01 and Y-27632. Specifically, human foreskin keratinocytes (HFK) previously cultured in KSFM supplemented with 1 μM A83-01 and 5 μM Y-27632 (KSFM+A+Y) at low CaCl2 (90 μM) were plated on a porous membrane support ([…], Corning, 354474) and maintained for 14 days. The cells were covered by culture medium (KSFM+A+Y and 1.5 mM of CaCl2) for the first day (submerged phase, grayed box in FIG. 34) and exposed to air for the remaining days.

Test [3] has the same test system. As to the kind of experiment: Tight junction formation, ZO-1 immunofluorescence. The class given is cell-based. As to conditions: CaCl2 raised to 1.5 mM in KSFM+A+Y. The method, then: Specifically, late passage human foreskin keratinocytes (HFK) cultured in KSFM supplemented with 1 μM A83-01 and 5 μM Y-27632 (KSFM+A+Y) at low CaCl2 (90 μM) were allowed to reach confluence. The cells remained in the KSFM+A+Y conditions and the CaCl2 concentration was raised to 1.5 mM to induce differentiation.

For test [4], the system named is human bronchial epithelial cells. As to the kind of experiment: Effect of culture media calcium content on cell behavior. The class given is cell-based. Conditions: 1 mM CaCl2 in KSFM plus A83-01 and Y-27632. The procedure:
Effects of culture media calcium content on cell behavior were assessed for epithelial cells cultured in KSFM plus A83-01 and Y-27632. Human bronchial epithelial cells were grown KSFM (with 90 μM CaCl2) plus A83-01 and Y-27632. These cells dispersed throughout the culture vessel (FIG. 28, left panel), and few cells formed intercellular connections, even when they were in close proximity to each other. […] Cells in the center of the patches tended to pile up, and boundaries between individual cells generally were not discernable. In certain instances, abnormal elongations formed between clusters.

The test system of test [5] is human bronchial epithelial cells (HBEC) and human foreskin keratinocytes (HFK). As to the kind of experiment: Dome-like structure formation at high CaCl2. The class given is cell-based. Conditions: CaCl2 raised to 1.5 mM in KSFM+A+Y, 7 to 10 days. The procedure:
Dome-like structures formed in keratinocyte and bronchial epithelial cell cultures in the presence of high concentration of CaCl2. Specifically, late passage human bronchial epithelial cells (HBEC) and late passage human foreskin keratinocytes (HFK) cultured in KSFM supplemented with 1 μM A 83-01 and 5 μM Y-27632 (KSFM+A+Y) at low CaCl2 (90 μM) were allowed to reach confluence in 6-well plates. The cells remained in the KSFM+A+Y conditions and the CaCl2 concentration was raised to 1.5 mM to induce differentiation of the epithelial cells.

For test [6], the system named is bronchial epithelial cells. As to the kind of experiment: Trans-epithelium electric resistance (TEER) of bronchial epithelial cells on […]. The class given is cell-based, human. The method, then:
In a further investigation, effects of culture media calcium content on intercellular junctions was assessed for bronchial epithelial cells cultured in KSFM plus A83-01 and Y-27632. Intercellular junctions were assessed according to paracellular flow of ions as measured by trans-epithelium electric resistance (TEER). […] Bronchial epithelial cells were plated on porous membrane support ([…], Corning, 354474) and maintained for 7 days when the membrane was covered with culture medium (submerged phase, grayed box in FIG. 29, top panel). On day 8, the medium was removed from the apical side of the membrane, and the cells were exposed to air to induce further differentiation. Further, as shown in FIG. 29 (bottom panel), bronchial epithelial cells established increasing transmembrane electric resistance (TEER) over time in the presence of high concentration (1 mM) of CaCl2 in KSFM plus A 83-01 and Y-27632. Bronchial epithelial cells were plated on a porous membrane support ([…], Corning, 354474) and maintained for 24 days, with the membrane covered by culture medium for the duration of the culture. Trans-epithelium electric resistance (TEER) remained at a high level throughout the culture period.

The test system of test [7] is CD4+ and CD8+ T cells (human PBMCs). As to the kind of experiment: T cell proliferation, Cell Trace CFSE stained PBMCs with PHA co-incubated with hAECs. It is filed as cell-based. As to conditions: 48 hour preincubation of hAECs with interferon γ 100 ng/ml. The source says: Human Peripheral Blood Mononuclear Cells (PBMCs) were isolated and stained with Cell Trace CFSE (Thermo Fisher Scientific). Cell Trace CFSE is a cell permeable amine reactive fluorescent dye that non-specifically labels intracellular proteins. Through subsequent cell divisions each daughter cell receives approximately half of the label allowing for determination of the intensity of fluorescence by flow cytometry and correlation to the number of cell divisions. Cell Trace CFSE stained PBMCs were added to ˜80% confluent monolayers of hAECs from Donor 1 (P4) and Donor 2 (P4) expanded in KSFM A+Y. Upon addition of the stained PMBCs the media was changed to RPMI media with 10% FBS and 5 μg/ml phytohaemagglutinin (PHA). PHA is a potent mitotic agent used to activate and stimulate proliferation of lymphocytes. The expanded hAECs were used directly from growth conditions or after a 48 hour preincubation with Interferon γ (100 ng/ml; Thermo Fisher Scientific). This treatment can increase the immunosuppressive effect of hAECs. […] The degree of inhibition of proliferation was calculated by determining the number of cells that proliferated in the presence of hAECs relative to the number of cells that proliferated when exposed to PHA treatment alone (FIG. 45D). […]

For the next test, the system named is hAECs. As to the kind of experiment: Effect of interferon γ on immunomodulatory gene expression in hAECs (qRT-PCR). The class given is cell-based, human. As to conditions: 100 ng/mL, 48 hours. The method, then: In certain instances, treatment of hAECs with interferon γ (INFγ) leads to an upregulation of genes involved in immune suppression. However, cultured hAECs typically lose their functional phenotype (see e.g., cells tested at passage 5 in Pratama et al. 2011 PLoS ONE 6(11): e26136). In this example, hAECs isolated from two different donors (Donor 1 and Donor 2), were tested for their response to INFγ both in KSFM A+Y and after removal from growth conditions and placement into standard hAEC media (DMEM:F12 10% FBS). Cells from both donors grown in KSFM A+Y at passage 4 at ˜80% confluence were either kept in KSFM A+Y, changed to KSFM A+Y+100 ng/mL INFγ, or changed to DMEM:F12+/−100 ng/mL INFγ. The cells were left for an additional 48 hours in each condition. qRT-PCR was used to examine expression levels of HLA-G, Indoleamine 2,3-dioxygenase (IDO), and Programmed Death Ligand 1 (PD-L1) (see FIGS. 46A-46D).
HLA-G can have a wide variety of immunomodulatory effects on numerous immune cells. Expression of HLA-G is generally considered a prominent feature of hAECs, and often is lost during expansion in culture. […] IDO is the first and rate-limiting enzyme of tryptophan catabolism through the kynurenine pathway, thus causing depletion of tryptophan which can inhibit T cell proliferation. […] PD-L1 may play a major role in immune suppression, inhibiting the proliferation and inducing apoptosis of T cells.

In the case of `[Ca+2].[Cl-].[Cl-]` [CaCl2], the epidermal-like structure formation result in test [1] is “differentiated into multi-layer structures”. In addition, the “trans-epithelium electric resistance (TEER)” value in test [2] is “reached very high levels”. For the same molecule, in test [3], the “tight junction formation (ZO-1)” value was “Tight junction formation was observed”. In test [4], the cell behavior entry is “aggregate into tight clusters”. Further, the dome-like structure formation result in test [5] is given as “Many dome-like structures were formed”. For the same molecule, the “intercellular junctions (TEER)” value in test [6] (high concentration (1 mM) in KSFM plus A 83-01 and Y-27632) is given as “established tight intercellular junctions”; in test [6] (low concentration (90 μM) in KSFM plus A 83-01 and Y-27632), “failed to establish tight intercellular junctions”.

B1: interferon γ: Interferon γ (100 ng/ml; Thermo Fisher Scientific) (protein, UniProt P01579 24-161, looked up)
Interferon gamma: QDPYVKEAENLKKYFNAGHSDVADNGTLFLGILKNWKEESDRKIMQSQIVSFYFKLFKNFKDDQSIQKSVETIKEDMNVKFFNSNKKKRDDFEKLTNYSVTDLNVQRKAIHELIQVMAELSPAAKTGKRKRSQMLFRG
As to B1, the “inhibition of T cell proliferation by hAECs” value in test [7] is “increased”. In the test on hAECs, the IDO expression result is on record as “increases dramatically” and the PD-L1 expression entry is “dramatic increase in expression”. Moreover, the HLA-G expression result in the test with hAECs (after moving cells to standard media (DMEM:F12)) is “greatly increased”.
